Columns and labels:
[1] = target: nicotinic receptors (L-[3H]nicotine binding, rat brain membrane preparations); parameters: species or system rat (Sprague-Dawley); conditions: calculated from IC50 (Cheng et al.)
Description: Rats (Sprague-Dawley) were maintained on a 12 hour light/dark cycle and were allowed free access to water and food supplied by Wayne Lab Blox, Madison, Wis. Animals used in the present studies weighted 200 to 250 g. Brain membrane preparations were obtained from brain tissue of either males or females.
Rats were killed by decapitation following anesthesia with 70% CO2. Brains were removed and placed on an ice-cold platform. […] The resulting homogenate was centrifuged at 18,000×g for 20 min. and the resulting pellet was resuspended in 20 volumes of water. After 60 min. incubation at 4° C., a new pellet was collected by centrifugation at 18,000×g for 20 min. After resuspension in 10 volumes of buffer, a new final pellet was again collected by centrifugation at 18,000×g for 20 min. Prior to each centrifugation step, the suspension was incubated at 37° C. for 5 min. to promote hydrolysis of endogenous acetylcholine. The final pellet was overlayed with buffer and stoerd at -70° C. On the day of the assay, that pellet was thawed, resuspended in buffer and centrifuged at 18,000×g for 20 min. The pellet obtained was resuspended in buffer to a final concentration of approximately 5 mg protein/ml.
The binding of L-[^3 H]nicotine was measured using a 2 hr. incubation at 4° C. […] Nonspecific binding was determined by inclusion of 10 uM nonradioactive nicotine in the incubations.

[2] = test system: synaptosomes from the striatal area of rat brain; assay: Dopamine release from striatal synaptosomes; type: biochemical, rat (Sprague-Dawley); conditions: relative to (S)-(-)-nicotine
Description: Dopamine release was measured by preparing synaptosomes from the striatal area of rat brain obtained from Sprague-Dawley rats generally according to the procedures set forth by Nagy et al., J. Neurochem., Vol. 43, pp. 1114-1123 (1984). Striata from 4 rats were homogenized in 2 ml of 0.32M sucrose buffered with 5 mM HEPES (pH 7.5), using a glass-Teflon tissue grinder. The homogenate was diluted to 5 ml with additional homogenization solution and centrifuged at 1,000×g for 10 min. This procedure was repeated on the new pellet and the resulting supernatant was centrifuged at 12,000×g for 20 min. A 3 layer discontinuous Percoll gradient consisting of 16 percent, 10 percent and 7.5 percent Percoll in HEPES-buffered sucrose was made with the final pellet dispersed in the top layer. […] Using this method, 30 to 90 percent of the dopamine was taken up into the synaptosomes, as determined by scintillation counting following filtration through glass fiber filters soaked with 0.5 percent polyethyleneimine. […] After the addition of 0.2 ml of a solution containing various concentrations of ligand, the perfusate was collected into scintillation vials at 1 min. intervals and the dopamine release was quantified by scintillation counting. Peaks of radioactivity released above background were summed and the average basal release during that time was substracted from the total.

[3] = target: T1, muscle-like nicotinic receptors (human clonal line TE671/RD) (Homo sapiens, UniProt P02708+P07510+Q07001); type: cell-based; conditions: te671/rd cells
T1 construct: Intact cells on dishes were used for functional studies; endogenous in cells; host or cells: TE671/RD (human embryonal rhabdomyosarcoma)
Description: Dose-response curves were plotted and the concentration resulting in half maximal activation of specific ion flux through nicotinic receptors determined for human muscle and rat ganglionic preparations (EC50).
(§1) Intact cells on dishes were used for functional studies.
(§2) Specific ion efflux was determined as the difference in isotope efflux between total and non-specific efflux samples. Dose-response curves were plotted and the concentration resulting in half maximal activation of specific ion flux through nicotinic receptors determined for human muscle and rat ganglionic preparations (EC50).

[4] = target: T2, ganglionic-type neuronal nicotinic receptors (pheochromocytoma clonal line PC12) (Rattus norvegicus, UniProt P04757+P12392); type: cell-based; conditions: pc12 cells
T2 construct: Intact cells on dishes were used for functional studies; endogenous in cells; host or cells: PC12 (rat pheochromocytoma)
T2 sequence (P04757 26-499): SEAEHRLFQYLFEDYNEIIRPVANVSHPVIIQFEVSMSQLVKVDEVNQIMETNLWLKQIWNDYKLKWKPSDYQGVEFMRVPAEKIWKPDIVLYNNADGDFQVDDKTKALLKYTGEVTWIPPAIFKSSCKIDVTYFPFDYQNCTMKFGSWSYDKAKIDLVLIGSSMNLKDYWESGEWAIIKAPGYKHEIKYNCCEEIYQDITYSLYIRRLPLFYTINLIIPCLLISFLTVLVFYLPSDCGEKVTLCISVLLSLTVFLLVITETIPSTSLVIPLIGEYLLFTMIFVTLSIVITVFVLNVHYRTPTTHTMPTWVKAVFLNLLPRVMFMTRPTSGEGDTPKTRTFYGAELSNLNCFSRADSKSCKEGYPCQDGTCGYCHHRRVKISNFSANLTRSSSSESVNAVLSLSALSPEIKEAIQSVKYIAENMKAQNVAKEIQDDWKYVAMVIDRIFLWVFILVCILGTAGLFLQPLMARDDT
T2 sequence (P12392 21-495): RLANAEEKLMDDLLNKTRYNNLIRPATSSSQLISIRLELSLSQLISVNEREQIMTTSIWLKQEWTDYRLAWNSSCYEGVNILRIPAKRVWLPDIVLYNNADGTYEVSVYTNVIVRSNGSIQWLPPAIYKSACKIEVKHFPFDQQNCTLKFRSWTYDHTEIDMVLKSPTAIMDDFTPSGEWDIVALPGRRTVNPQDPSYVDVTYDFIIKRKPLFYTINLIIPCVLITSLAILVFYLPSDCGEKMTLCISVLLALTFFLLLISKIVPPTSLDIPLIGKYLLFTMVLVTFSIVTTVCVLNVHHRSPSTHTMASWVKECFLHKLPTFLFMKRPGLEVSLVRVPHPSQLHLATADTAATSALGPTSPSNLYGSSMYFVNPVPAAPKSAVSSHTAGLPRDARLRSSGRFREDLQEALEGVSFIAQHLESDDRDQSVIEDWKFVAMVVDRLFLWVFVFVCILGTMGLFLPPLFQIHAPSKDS
Description: as §1, §2

T1 sequence (P02708 21-457): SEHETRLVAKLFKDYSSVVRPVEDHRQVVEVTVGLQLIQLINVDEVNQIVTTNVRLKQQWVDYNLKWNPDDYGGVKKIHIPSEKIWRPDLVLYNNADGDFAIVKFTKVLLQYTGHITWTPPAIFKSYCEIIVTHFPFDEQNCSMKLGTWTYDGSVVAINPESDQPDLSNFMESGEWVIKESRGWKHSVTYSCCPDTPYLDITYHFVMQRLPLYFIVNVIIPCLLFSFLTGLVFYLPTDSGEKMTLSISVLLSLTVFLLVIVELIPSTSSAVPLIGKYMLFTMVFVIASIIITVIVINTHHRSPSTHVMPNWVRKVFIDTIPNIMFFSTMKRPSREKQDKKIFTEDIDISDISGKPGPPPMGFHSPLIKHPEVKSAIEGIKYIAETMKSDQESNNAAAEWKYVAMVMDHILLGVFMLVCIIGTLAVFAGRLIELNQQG
T1 sequence (Q07001 22-517): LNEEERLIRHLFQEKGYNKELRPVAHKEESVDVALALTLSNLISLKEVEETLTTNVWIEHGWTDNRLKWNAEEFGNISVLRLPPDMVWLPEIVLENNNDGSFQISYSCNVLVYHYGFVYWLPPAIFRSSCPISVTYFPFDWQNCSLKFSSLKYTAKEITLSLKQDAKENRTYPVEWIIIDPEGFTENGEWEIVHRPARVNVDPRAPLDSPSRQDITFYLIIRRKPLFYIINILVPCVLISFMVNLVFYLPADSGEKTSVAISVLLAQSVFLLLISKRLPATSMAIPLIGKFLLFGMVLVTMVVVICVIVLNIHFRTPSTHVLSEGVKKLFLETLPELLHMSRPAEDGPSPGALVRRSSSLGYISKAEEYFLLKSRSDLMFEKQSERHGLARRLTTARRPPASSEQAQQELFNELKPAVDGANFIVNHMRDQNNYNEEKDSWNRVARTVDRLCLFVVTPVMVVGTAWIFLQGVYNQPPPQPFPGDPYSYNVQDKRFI
T1 sequence (P07510 23-517): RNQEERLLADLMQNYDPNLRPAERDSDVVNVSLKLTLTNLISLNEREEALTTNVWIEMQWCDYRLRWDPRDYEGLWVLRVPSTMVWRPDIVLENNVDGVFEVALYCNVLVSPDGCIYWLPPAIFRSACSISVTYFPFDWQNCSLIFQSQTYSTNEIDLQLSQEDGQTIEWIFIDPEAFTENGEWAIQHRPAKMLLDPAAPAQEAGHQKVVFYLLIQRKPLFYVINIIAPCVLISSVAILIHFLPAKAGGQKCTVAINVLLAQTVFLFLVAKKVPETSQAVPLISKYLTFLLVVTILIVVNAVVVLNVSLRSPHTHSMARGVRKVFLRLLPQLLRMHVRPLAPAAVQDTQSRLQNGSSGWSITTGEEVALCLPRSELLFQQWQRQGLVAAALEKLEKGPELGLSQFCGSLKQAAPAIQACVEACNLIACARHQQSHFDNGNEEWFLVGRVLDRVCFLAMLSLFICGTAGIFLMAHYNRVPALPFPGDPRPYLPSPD

## CNCCCCc1cccnc1 [Sample No. 7, N-methyl-(3-pyridinyl)-buane-1-amine]
[1]
  Ki: 910 nM
[2]
  Dopamine Release Emax: 72 % nicotine
[3]
  Muscle Effect: 0 % nicotine
[4]
  Ganglion Effect: 31 % nicotine
